Each block holds one compound with its values, some of them ahead of it.
Assay: Rabbit Cornea Homogenate stability (esterase) assay, Method 2
Assay type: in vitro ADME
Settings: for Esterase % Lifitegrast formation at 45 min: 37° C., Method 2 (DPBS pH 7.4); for API Formation rate (%/min): Method 2
Experimental: Determining Rabbit Cornea Homogenate stability of the test compounds was performed using HPLC-MS or UPLC-MS. The assay was performed at two concentrations of Rabbit Cornea Homogenate (0.15 mg/mL and 0.45 mg/mL total protein) so that any hydrolysis observed can be assigned as esterase dependent or not.
Three to five rabbit corneas (e.g. New Zealand Whites (NZW) or Dutch Belted (DB)) of approx. 50 mg each were sliced and scraped with a scalpel and tweezers until reduced to small (1-3 mm), thin pieces. These were transferred into a glass vial containing approximately 2 mL of cold DPBS pH 7.4 buffer.
Sample was cooled intermittently on ice and shear homogenized for 3 minutes, then centrifuged for 3 min at 13,000 g. The supernatant was pipetted off into a vial, and total protein concentration determined at 280 nm. Sample was stored at −78° C.
10 mM Compound DMSO stocks were diluted to 10 μM in a glass vial: 10 μL of 10 mM Compound stock was added to 9,990 μL DPBS, pH 7.4 buffer. Esterase homogenate was diluted to 300 ng/μL and 900 ng/μL in DPBS. […]
A heater shaker was set to 37° C. Into a suitable 96 well plate (Run Plate), 80 μL of 300 or 900 ng/μL esterase homogenate was pipetted into two rows as compounds were analyzed in duplicate (0 min, 2 min, 5 min, 10 min, 20 min and 45 min). The plate was sealed and then warmed at 37° C. for 5 min.
Two 96 shallow-well plates were placed on ice (Kill Plates). To these, 180 μL of 60:40 MeCN-H2O+0.1% acetic acid were added to required rows. The plates were sealed to minimise evaporation.
To both rows of the Run Plate, 80 μL of 10 μM compound solution was added. At the appropriate time point, 20 μL of the assay mixture was added to the matching kill plate well containing 180 μL of 60:40 cold MeCN-H2O+0.1% acetic acid. For lipoic acid analysis, samples were analysed as soon as practicable by LCMS (Waters Xevo TQ-S). For parent conjugate and parent analysis the samples were diluted further 1 in 10: 20 μL supernatant was added to 180 μL of 50:50 MeCN—H2O.
Parent conjugate, parent and keratolytic concentrations were determined against appropriate standard response curves and the half-life (T½) of the parent conjugate was calculated using the peak area or the measured concentration of the parent conjugate at each time point in the linear region of the log-linear plot.

[1] = Cornea Homogenate Conc 0.15 mg/mL
[2] = Cornea Homogenate Conc 0.45 mg/mL

API Formation rate (%/min) [1]: a (API formation rate <0.5%/min) | API Formation rate (%/min) [2]: a (API formation rate <0.5%/min)
Structure (SMILES): CC(OC(=O)OCCOC(=O)CCCC[C@H]1CCSS1)OC(=O)[C@H](Cc1cccc(S(C)(=O)=O)c1)NC(=O)c1c(Cl)cc2c(c1Cl)CCN(C(=O)c1ccc3ccoc3c1)C2 (stereo partly drawn) [Compound 46]
Esterase % Lifitegrast formation at 45 min [1]: A (percent active pharmaceutical ingredient (API) formation <25%) | Esterase % Lifitegrast formation at 45 min [2]: A (percent active pharmaceutical ingredient (API) formation <25%)

API Formation rate (%/min) [1]: a (API formation rate <0.5%/min) | API Formation rate (%/min) [2]: a (API formation rate <0.5%/min)
Structure (SMILES): CC(OC(=O)OCCCOC(=O)CCCC[C@@H]1CCSS1)OC(=O)[C@H](Cc1cccc(S(C)(=O)=O)c1)NC(=O)c1c(Cl)cc2c(c1Cl)CCN(C(=O)c1ccc3ccoc3c1)C2 (stereo partly drawn) [Compound 47]
Esterase % Lifitegrast formation at 45 min [1]: A (percent active pharmaceutical ingredient (API) formation <25%) | Esterase % Lifitegrast formation at 45 min [2]: A (percent active pharmaceutical ingredient (API) formation <25%)

API Formation rate (%/min) [1]: a (API formation rate <0.5%/min) | API Formation rate (%/min) [2]: a (API formation rate <0.5%/min)
Structure (SMILES): CC(=O)N[C@@H](CSSC[C@H](NC(C)=O)C(=O)OC(C)OC(=O)[C@H](Cc1cccc(S(C)(=O)=O)c1)NC(=O)c1c(Cl)cc2c(c1Cl)CCN(C(=O)c1ccc3ccoc3c1)C2)C(=O)OC(C)OC(=O)[C@H](Cc1cccc(S(C)(=O)=O)c1)NC(=O)c1c(Cl)cc2c(c1Cl)CCN(C(=O)c1ccc3ccoc3c1)C2 (stereo partly drawn) [Compound 49]
Esterase % Lifitegrast formation at 45 min [1]: A (percent active pharmaceutical ingredient (API) formation <25%) | Esterase % Lifitegrast formation at 45 min [2]: A (percent active pharmaceutical ingredient (API) formation <25%)

Esterase % Lifitegrast formation at 45 min [1]: C (percent API formation 51% to 75%) | API Formation rate (%/min) [1]: d (API formation rate >1.5%/min) | Esterase % Lifitegrast formation at 45 min [2]: C (percent API formation 51% to 75%) | API Formation rate (%/min) [2]: d (API formation rate >1.5%/min)
Structure (SMILES): CC(OC(=O)OCCO)OC(=O)[C@H](Cc1cccc(S(C)(=O)=O)c1)NC(=O)c1c(Cl)cc2c(c1Cl)CCN(C(=O)c1ccc3ccoc3c1)C2 (stereo partly drawn) [Compound 42]

Esterase % Lifitegrast formation at 45 min [1]: C (percent API formation 51% to 75%) | API Formation rate (%/min) [1]: c (API formation rate 1.0-1.5%/min) | Esterase % Lifitegrast formation at 45 min [2]: D (percent API formation >75%) | API Formation rate (%/min) [2]: c (API formation rate 1.0-1.5%/min)
Structure (SMILES): CCOC(=O)CCC(=O)OC(C)OC(=O)[C@H](Cc1cccc(S(C)(=O)=O)c1)NC(=O)c1c(Cl)cc2c(c1Cl)CCN(C(=O)c1ccc3ccoc3c1)C2 (stereo partly drawn) [Compound 37]

Esterase % Lifitegrast formation at 45 min [1]: B (percent API formation 25% to 50%) | API Formation rate (%/min) [1]: b (API formation rate 0.5-1.0%/min) | Esterase % Lifitegrast formation at 45 min [2]: C (percent API formation 51% to 75%) | API Formation rate (%/min) [2]: c (API formation rate 1.0-1.5%/min)
Structure (SMILES): CC(OC(=O)CCC(=O)OC(C)(C)C)OC(=O)[C@H](Cc1cccc(S(C)(=O)=O)c1)NC(=O)c1c(Cl)cc2c(c1Cl)CCN(C(=O)c1ccc3ccoc3c1)C2 (stereo partly drawn) [Compound 48]

Second part, the compound before the results:

Structure (SMILES): CS(=O)(=O)c1cccc(C[C@H](NC(=O)c2c(Cl)cc3c(c2Cl)CCN(C(=O)c2ccc4ccoc4c2)C3)C(=O)OCCCO)c1 [Compound 33]
Esterase % Lifitegrast formation at 45 min [1]: B (percent API formation 25% to 50%) | API Formation rate (%/min) [1]: b (API formation rate 0.5-1.0%/min) | Esterase % Lifitegrast formation at 45 min [2]: B (percent API formation 25% to 50%) | API Formation rate (%/min) [2]: c (API formation rate 1.0-1.5%/min)

Structure (SMILES): CC(=O)N[C@@H](CS)C(=O)OCCOCCOCCOCCOCCOCCOCCOCCOC(=O)OC(C)OC(=O)[C@H](Cc1cccc(S(C)(=O)=O)c1)NC(=O)c1c(Cl)cc2c(c1Cl)CCN(C(=O)c1ccc3ccoc3c1)C2 (stereo partly drawn) [Compound 30]
Esterase % Lifitegrast formation at 45 min [1]: A (percent active pharmaceutical ingredient (API) formation <25%) | API Formation rate (%/min) [1]: a (API formation rate <0.5%/min) | Esterase % Lifitegrast formation at 45 min [2]: A (percent active pharmaceutical ingredient (API) formation <25%) | API Formation rate (%/min) [2]: a (API formation rate <0.5%/min)

Structure (SMILES): CC(=O)NC(CSSCC(NC(C)=O)C(=O)OC(C)OC(=O)[C@H](Cc1cccc(S(C)(=O)=O)c1)NC(=O)c1c(Cl)cc2c(c1Cl)CCN(C(=O)c1ccc3ccoc3c1)C2)C(=O)O (stereo partly drawn) [Compound 25]
Esterase % Lifitegrast formation at 45 min [1]: A (percent active pharmaceutical ingredient (API) formation <25%) | API Formation rate (%/min) [1]: a (API formation rate <0.5%/min) | Esterase % Lifitegrast formation at 45 min [2]: A (percent active pharmaceutical ingredient (API) formation <25%) | API Formation rate (%/min) [2]: a (API formation rate <0.5%/min)

Structure (SMILES): CS(=O)(=O)c1cccc(C[C@H](NC(=O)c2c(Cl)cc3c(c2Cl)CCN(C(=O)c2ccc4ccoc4c2)C3)C(=O)OCCO)c1 [Compound 32]
Esterase % Lifitegrast formation at 45 min [1]: A (percent active pharmaceutical ingredient (API) formation <25%) | API Formation rate (%/min) [1]: a (API formation rate <0.5%/min) | Esterase % Lifitegrast formation at 45 min [2]: B (percent API formation 25% to 50%) | API Formation rate (%/min) [2]: b (API formation rate 0.5-1.0%/min)

Structure (SMILES): CS(=O)(=O)c1cccc(C[C@H](NC(=O)c2c(Cl)cc3c(c2Cl)CCN(C(=O)c2ccc4ccoc4c2)C3)C(=O)OCCOC(=O)CCCC[C@@H]2CCSS2)c1 [Compound 34]
Esterase % Lifitegrast formation at 45 min [1]: A (percent active pharmaceutical ingredient (API) formation <25%) | API Formation rate (%/min) [1]: a (API formation rate <0.5%/min) | Esterase % Lifitegrast formation at 45 min [2]: A (percent active pharmaceutical ingredient (API) formation <25%) | API Formation rate (%/min) [2]: a (API formation rate <0.5%/min)

Structure (SMILES): CS(=O)(=O)c1cccc(C[C@H](NC(=O)c2c(Cl)cc3c(c2Cl)CCN(C(=O)c2ccc4ccoc4c2)C3)C(=O)OCOC(=O)CCCC[C@@H]2CCSS2)c1 [Compound 36]
Esterase % Lifitegrast formation at 45 min [1]: A (percent active pharmaceutical ingredient (API) formation <25%) | API Formation rate (%/min) [1]: a (API formation rate <0.5%/min) | Esterase % Lifitegrast formation at 45 min [2]: B (percent API formation 25% to 50%) | API Formation rate (%/min) [2]: b (API formation rate 0.5-1.0%/min)

Structure (SMILES): CC(=O)N1C(C(=O)OC(C)OC(=O)[C@H](Cc2cccc(S(C)(=O)=O)c2)NC(=O)c2c(Cl)cc3c(c2Cl)CCN(C(=O)c2ccc4ccoc4c2)C3)CSC1(C)C (stereo partly drawn) [Compound 26]
Esterase % Lifitegrast formation at 45 min [1]: A (percent active pharmaceutical ingredient (API) formation <25%) | API Formation rate (%/min) [1]: a (API formation rate <0.5%/min) | Esterase % Lifitegrast formation at 45 min [2]: A (percent active pharmaceutical ingredient (API) formation <25%) | API Formation rate (%/min) [2]: a (API formation rate <0.5%/min)

Structure (SMILES): CC(=O)N[C@@H](CS)C(=O)OCCOCCOCCOCCOC(=O)OC(C)OC(=O)[C@H](Cc1cccc(S(C)(=O)=O)c1)NC(=O)c1c(Cl)cc2c(c1Cl)CCN(C(=O)c1ccc3ccoc3c1)C2 (stereo partly drawn) [Compound 29]
Esterase % Lifitegrast formation at 45 min [1]: A (percent active pharmaceutical ingredient (API) formation <25%) | API Formation rate (%/min) [1]: a (API formation rate <0.5%/min) | Esterase % Lifitegrast formation at 45 min [2]: A (percent active pharmaceutical ingredient (API) formation <25%) | API Formation rate (%/min) [2]: a (API formation rate <0.5%/min)

Structure (SMILES): CS(=O)(=O)c1cccc(C[C@H](NC(=O)c2c(Cl)cc3c(c2Cl)CCN(C(=O)c2ccc4ccoc4c2)C3)C(=O)OCCCOC(=O)CCCC[C@@H]2CCSS2)c1 [Compound 35]
Esterase % Lifitegrast formation at 45 min [1]: A (percent active pharmaceutical ingredient (API) formation <25%) | API Formation rate (%/min) [1]: a (API formation rate <0.5%/min) | Esterase % Lifitegrast formation at 45 min [2]: A (percent active pharmaceutical ingredient (API) formation <25%) | API Formation rate (%/min) [2]: a (API formation rate <0.5%/min)

Source: US20230399317A1, “COMPOUNDS AND METHODS FOR THE TREATMENT OF OCULAR DISORDERS” (Azura Ophthalmics Ltd., priority 2020, published 2023)
